Source: patent US20100130737A1, “Regulating Agent of GPR34 Receptor Function” (TAKEDA PHARMACEUTICAL COMPANY LIMITED, priority 2005, published 2010)

Question: Which melting point does the source give for `CC(C)Oc1ccc(-c2ccc3sc(C(=O)N[C@@H](Cc4ccc(OCc5ccc(F)cc5)cc4)C(=O)O)cc3c2)cc1` [Example C130, O-(4-Fluorobenzyl)-N-{[5-(4-isopropoxyphenyl)-1-benzothiophene-2-yl]carbonyl}tyrosine] here?
Answer: 204 to 205 °C

Question: For `Cc1ccc(COc2ccc(C[C@H](NC(=O)c3cc4cc(-c5ccc(Cl)cc5)ccc4s3)C(=O)O)cc2)cc1` [Example C134, N-{[5-(4-Chlorophenyl)-1-benzothiophene-2-yl]carbonyl}-O-(4-methylbenzyl)tyrosine], which melting point is on record?
Answer: 208 °C

Question: Which melting point does the source give for `O=C(N[C@@H](Cc1ccc(OCc2ccc(Cl)cc2)cc1)C(=O)O)c1cc2cc(-c3ccc(Cl)cc3)ccc2s1` [Example C135, O-(4-Chlorobenzyl)-N-{[5-(4-chlorophenyl)-1-benzothiophene-2-yl]carbonyl}tyrosine] here?
Answer: 196 to 197 °C

Question: With `N#Cc1ccc(COc2ccc(C[C@H](NC(=O)c3cc4cc(-c5ccc(Cl)cc5)ccc4s3)C(=O)O)cc2)cc1` [Example C136, N-{[5-(4-Chlorophenyl)-1-benzothiophene-2-yl]carbonyl)-O-(4-cyanobenzyl)tyrosine] as the compound, how does the melting point read?
Answer: 164 °C

Question: Which melting point does the source give for `CCc1ccc(COc2ccc(C[C@H](NC(=O)c3cc4cc(-c5ccc(Cl)cc5)ccc4s3)C(=O)O)cc2)cc1` [Example C137, N-{[5-(4-Chlorophenyl)-1-benzothiophene-2-yl]carbonyl}-O-(4-ethylbenzyl)tyrosine] here?
Answer: 205 °C

Question: For `O=C(N[C@@H](Cc1ccc(OCc2ccc(C(F)(F)F)cc2)cc1)C(=O)O)c1cc2cc(-c3ccc(Cl)cc3)ccc2s1` [Example C138, N-{[5-(4-Chlorophenyl)-1-benzothiophene-2-yl]carbonyl}-O-[4-(trifluoromethyl)benzyl]tyrosine], which melting point is on record?
Answer: 198 °C

Question: For `Cc1ccc(COc2ccc(C[C@H](NC(=O)c3cc4cc(C#Cc5ccccc5)ccc4s3)C(=O)O)cc2)cc1` [Example C140, O-(4-Methylbenzyl)-N-{[5-(phenylethynyl)-1-benzothiophene-2-yl]carbonyl}tyrosine], which melting point is on record?
Answer: 204 to 207 °C

Question: Which melting point does the source give for `O=C(NC(Cc1ccc(OCc2ccc(Cl)cc2)cc1)C(=O)O)c1cc2cc(C#Cc3ccccc3)ccc2s1` (centres unmarked) [Example C141, O-(4-Chlorolbenzyl)-N-{[5-(phenylethynyl)-1-benzothiophene-2-yl]carbonyl)tyrosine] here?
Answer: 216 to 221 °C

Question: With `Nc1c(C(=O)NC(Cc2ccc(OCc3ccccc3)cc2)C(=O)O)oc2ccc(-c3ccc(Cl)cc3)cc12` (centres unmarked) [Example C149] as the compound, how does the melting point read?
Answer: 250 °C

Question: Which melting point does the source give for `Cc1c(C(=O)N[C@@H](Cc2ccc(OCc3ccoc3)cc2)C(=O)O)oc2ccc(-c3ccc(Cl)cc3)cc12` [Example C150, N-{[5-(4-Chlorophenyl)-3-methyl-1-benzofuran-2-yl]carbonyl}-O-(3-furylmethyl)tyrosine] here?
Answer: 196 to 197 °C

Question: With `O=C(N[C@@H](Cc1ccc(OCc2ccoc2)cc1)C(=O)O)c1cc2ccc(-c3ccc(Cl)cc3)cc2o1` [Example C151, N-{[6-(4-Chlorophenyl)-1-benzofuran-2-yl]carbonyl}-O-(3-furylmethyl)tyrosine] as the compound, how does the melting point read?
Answer: 159 to 160 °C

Question: With `O=C(N[C@@H](Cc1ccc(OCc2ccoc2)cc1)C(=O)O)c1cc2cc(-c3ccc(Cl)cc3)ccc2o1` [Example C152, N-{[5-(4-Chlorophenyl)-1-benzofuran-2-yl]carbonyl}-O-(3-furylmethyl)tyrosine] as the compound, how does the melting point read?
Answer: 211 to 212 °C

Question: With `Cc1cccc(COc2ccc(C[C@H](NC(=O)c3cc4ccc(-c5ccc(Cl)cc5)cc4o3)C(=O)O)cc2)c1` [Example C154, N-{[6-(4-Chlorophenyl)-1-benzofuran-2-yl]carbonyl}-O-(3-methylbenzyl)tyrosine] as the compound, how does the melting point read?
Answer: 157 to 158 °C

Question: With `COc1cccc(COc2ccc(C[C@H](NC(=O)c3cc4ccc(-c5ccc(Cl)cc5)cc4o3)C(=O)O)cc2)c1` [Example C155, N-{[6-(4-Chlorophenyl)-1-benzofuran-2-yl]carbonyl}-O-(3-methoxybenzyl)tyrosine] as the compound, how does the melting point read?
Answer: 150 to 151 °C

Question: Which melting point does the source give for `Cc1c(C(=O)N[C@H](C(=O)O)c2ccc(OCc3ccccc3)cc2)oc2cc(-c3ccc(Cl)cc3)ccc12` [Example C156, (2S)-[4-(Benzyloxy)phenyl]({[6-(4-chlorophenyl)-3-methyl-1-benzofuran-2-yl]carbonyl}amino)acetic acid] here?
Answer: 178 °C

Question: With `Cc1ccc(COc2ccc(CC(NC(=O)c3cc4ccc(-c5ccc(Cl)cc5)cc4o3)C(=O)O)cc2)cc1` (centres unmarked) [Example C158] as the compound, how does the melting point read?
Answer: 204 °C

Question: Which melting point does the source give for `O=C(N[C@@H](Cc1ccc(OCc2ccc(Cl)cc2)cc1)C(=O)O)c1cc2ccc(-c3ccc(Cl)cc3)cc2o1` [Example C159, O-(4-Chlorobenzyl)-N-{[6-(4-chlorophenyl)-1-benzofuran-2-yl]carbonyl}tyrosine] here?
Answer: 195 °C

Question: With `N#Cc1ccc(COc2ccc(C[C@H](NC(=O)c3cc4ccc(-c5ccc(Cl)cc5)cc4o3)C(=O)O)cc2)cc1` [Example C160, N-{[6-(4-Chlorophenyl)-1-benzofuran-2-yl]carbonyl}-O-(4-cyanobenzyl)tyrosine] as the compound, how does the melting point read?
Answer: 204 °C

Question: Which melting point does the source give for `CCc1ccc(COc2ccc(C[C@H](NC(=O)c3cc4ccc(-c5ccc(Cl)cc5)cc4o3)C(=O)O)cc2)cc1` [Example C161, N-{[6-(4-Chlorophenyl)-1-benzofuran-2-yl]carbonyl)-O-(4-ethylbenzyl)tyrosine] here?
Answer: 194 °C

Question: For `O=C(NC(Cc1ccc(OCc2ccc(C(F)(F)F)cc2)cc1)C(=O)O)c1cc2ccc(-c3ccc(Cl)cc3)cc2o1` (centres unmarked) [Example C162], which melting point is on record?
Answer: 203 °C

Question: For `O=C(NC(Cc1ccc(OCc2ccc(F)cc2)cc1)C(=O)O)c1nc2ccc(-c3ccc(Cl)cc3)cc2[nH]1` (centres unmarked) [Example C168], which melting point is on record?
Answer: 258 to 259 °C

Question: For `O=C(/C=C/c1cccc(-c2ccc(Cl)cc2)n1)NC(Cc1ccc(OCc2ccccc2)cc1)C(=O)O` (centres unmarked) [Example D3, O-Benzyl-N-{3-[6-(4-chlorophenyl)pyridin-2-yl]acryloyl}tyrosine], which melting point is on record?
Answer: 226 to 228 °C

Question: For `O=C(/C=C/c1ccc(-c2ccc(Cl)cc2)o1)N[C@@H](Cc1ccc(OCc2ccccc2)cc1)C(=O)O` [Example D4, O-Benzyl-N-{(2E)-3-[5-(4-chlorophenyl)-2-furyl]propa-2-enoyl}tyrosine], which melting point is on record?
Answer: 224 to 225 °C

Question: Which melting point does the source give for `O=C(N[C@@H](Cc1ccc(OCc2ccsc2)cc1)C(=O)O)c1cn2cc(-c3ccc(Cl)cc3)ccc2n1` [Example E2, N-{[6-(4-Chlorophenyl)imidazo[1,2-a]pyridin-2-yl]carbonyl}-O-(3-thienylmethyl)-L-tyrosine] here?
Answer: 203 °C

Question: Which melting point does the source give for `O=C(N[C@@H](Cc1ccc(OCc2ccccc2)cc1)C(=O)O)c1cn2cc(-c3ccc(Cl)cc3)cnc2n1` [Example E4, O-Benzyl-N-{[6-(4-chlorophenyl)imidazo[1,2-a]pyrimidin-2-yl]carbonyl}tyrosine] here?
Answer: 252 to 253 °C

Question: With `O=C(NC(Cc1ccc(OCc2ccccc2F)cc1)C(=O)O)c1cn2cc(-c3ccc(Cl)cc3)ccc2n1` (centres unmarked) [Example E6] as the compound, how does the melting point read?
Answer: 273 °C

Question: With `O=C(NC(Cc1ccc(OCc2ccc(F)cc2)cc1)C(=O)O)c1cn2cc(-c3ccc(Cl)cc3)ccc2n1` (centres unmarked) [Example E7] as the compound, how does the melting point read?
Answer: 267 °C

Question: For `O=C(N[C@@H](Cc1ccc(OCc2ccccc2)cc1)C(=O)O)c1cn2ccc(-c3ccc(Cl)cc3)cc2n1` [Example E8, O-Benzyl-N-{[7-(4-chlorophenyl)imidazo[1,2-a]pyridin-2-yl]carbonyl}tyrosine], which melting point is on record?
Answer: 255 °C

Question: With `O=C(NC(Cc1ccc(OCc2cccc(F)c2)cc1)C(=O)O)c1cn2cc(-c3ccc(Cl)cc3)ccc2n1` (centres unmarked) [Example E10] as the compound, how does the melting point read?
Answer: 252 °C

Question: With `O=C(N[C@@H](Cc1ccc(F)cc1)C(=O)O)c1cn2cc(-c3ccc(Cl)cc3)ccc2n1` [Example E11, N-{[6-(4-Chlorophenyl)imidazo[1,2-a]pyridin-2-yl]carbonyl}-4-fluorophenylalanine] as the compound, how does the melting point read?
Answer: 266 °C

Question: With `O=C(O)CN(Cc1ccc(OCc2ccc(F)cc2)cc1)C(=O)c1cn2cc(-c3ccc(Cl)cc3)ccc2n1` [Example E13, N-{[6-(4-Chlorophenyl)imidazo[1,2-a]pyridin-2-yl]carbonyl}-N-{4-[(4-fluorobenzyl)oxy]benzyl}glycine] as the compound, how does the melting point read?
Answer: 206 °C

Question: For `O=C(NC(Cc1ccc(OCc2ccccc2)cc1)c1nnn[nH]1)c1cn2cc(-c3ccc(Cl)cc3)ccc2n1` (centres unmarked) [Example E14, N-[2-[4-(Benzyloxy)phenyl]-1-(1H-tetrazol-5-yl)ethyl]-6-(4-chlorophenyl)imidazo[1,2-a]pyridine-2-carboxamide], which melting point is on record?
Answer: 241 °C

Question: Which melting point does the source give for `O=C(NC(Cc1ccc(OCc2ccccc2)cc1)c1nnn[nH]1)c1cn2nc(-c3ccc(Cl)cc3)ccc2n1` (centres unmarked) [Example E15, N-[2-[4-(Benzyloxy)phenyl]-1-(1H-tetrazol-5-yl)ethyl]-6-(4-chlorophenyl)imidazo[1,2-b]pyridazine-2-carboxamide] here?
Answer: 186 °C

Question: For `O=C(N[C@@H](Cc1ccc(OCC2CC2)cc1)C(=O)O)c1cn2cc(-c3ccc(Cl)cc3)ccc2n1` [Example E17, N-{[6-(4-Chlorophenyl)imidazo[1,2-a]pyridin-2-yl]carbonyl}-O-(cyclopropylmethyl)tyrosine], which melting point is on record?
Answer: 276 °C

Question: With `O=C(N[C@@H](Cc1ccc(OCc2ccccc2)cc1)C(=O)O)c1cn2cc(-c3cccnc3)ccc2n1` [Example E20, O-Benzyl-N-[(6-(pyridin-3-yl)imidazo[1,2-a]pyridine-2-yl)carbonyl]tyrosine] as the compound, how does the melting point read?
Answer: 244 °C

Question: Which melting point does the source give for `O=C(N[C@@H](Cc1ccc(OCc2ccccc2)cc1)C(=O)O)c1cn2cc(-c3ccncc3)ccc2n1` [Example E21, O-Benzyl-N-[(6-(pyridine-4-yl)imidazo[1,2-a]pyridin-2-yl)carbonyl]tyrosine] here?
Answer: 268 °C

Question: Which melting point does the source give for `O=C(NC(Cc1ccc(OCc2ccccc2)cc1)c1noc(=O)[nH]1)c1cn2cc(-c3ccc(Cl)cc3)ccc2n1` (centres unmarked) [Example E30, N-[2-[4-(Benzyloxy)phenyl]-1-(5-oxo-4,5-dihydro-1,2,4-oxadiazol-3-yl)ethyl]-6-(4-chlorophenyl)imidazo[1,2-a]pyridine-2-carboxamide] here?
Answer: 167 °C

Question: For `O=C(N[C@@H](Cc1ccc(OCc2ccoc2)cc1)C(=O)O)c1cn2cc(-c3ccc(Cl)cc3)ccc2n1` [Example E31, N-{[6-(4-Chlorophenyl)imidazo[1,2-a]pyridin-2-yl]carbonyl}-O-(3-furylmethyl)tyrosine], which melting point is on record?
Answer: 262 °C
